In general, Ki refers to a measure of affinity in units of concentration, obtained from inhibition or displacement.

Data on 17 molecules can be found in US11596639B2, “Substituted indole Mcl-1 inhibitors” (Vanderbilt University, priority 2016, dated 2023).

Each structure is given as a SMILES string. Like-named read-outs stand apart in the source and are kept apart here. Where only a bound is given, the exact number is not on record here.

One assay addresses Mcl-1 (Homo sapiens (Human), UniProt Q07820). Description: Fluorescence polarization anisotropy (FPA) competition assay, FITC-Bak or FITC-Bim BH3 peptide. The class given is binding. Particulars: read-out: Ki for Inhibition of Mcl-1 by FPA assay.
Assay [1] has as its system H929 human cancer cell lines. Description: Cellular viability / proliferation (Cell TiterGlo, 72 h). The class given is cell-based. The gist of the method: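 H929 cells plated at 1,000/well in 10% FBS medium received a 2-fold serial compound dilution (top 50 μM, DMSO <1%) 24 h later. After 72 h, viability was read by CellTiter-Glo luminescence. IC50 came from a four-parameter fit.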
(ATP-based viability assays read luminescence as a measure of living cells.)

[2] abbreviates: Homo sapiens, NCI-H929, 72 h, read-out: GI50 on cellular proliferation of H929 human cancer cell lines, H929 cells, 72 h, Cell TiterGlo, 10% FBS.

Sequence of Mcl-1 (Q07820 172-327): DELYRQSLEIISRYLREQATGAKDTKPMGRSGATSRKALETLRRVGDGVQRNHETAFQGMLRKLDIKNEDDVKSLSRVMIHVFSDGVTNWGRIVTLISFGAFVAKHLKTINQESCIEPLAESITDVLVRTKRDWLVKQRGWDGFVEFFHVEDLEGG

For `Cc1cc(OCCCc2c3n(c4c(-c5c(C)nn(CC6CCN(C)C6)c5C)c(Cl)ccc24)[C@H](C)CN(c2cn(C)c4ccc(C(=O)O)cc24)C3=O)cc(C)c1Cl` (stereo partly drawn) [Example 261, 3-((4R)-7-chloro-10-(3-(4-chloro-3,5-dimethylphenoxy)propyl)-6-(3,5-dimethyl-1-((1-methylpyrrolidin-3-yl)methyl)-1H-pyrazol-4-yl)-4-methyl-1-oxo-3,4-dihydropyrazino[1,2-a]indol-2(1H)-yl)-1-methyl-1H-indole-5-carboxylic acid], the Ki on Mcl-1 was below 1 nM. Besides, in assay [1] (setting [2]), the GI50 was determined as 530 nM.

As for `Cc1cc(OCCCc2c3n(c4c(-c5c(C)nn(CC6CCOCC6)c5C)c(Cl)ccc24)[C@H](C)CN(c2cn(C)c4ccc(C(=O)O)cc24)C3=O)cc(C)c1Cl` [Example 262, (R)-3-(7-chloro-10-(3-(4-chloro-3,5-dimethylphenoxy)propyl)-6-(3,5-dimethyl-1-((tetrahydro-2H-pyran-4-yl)methyl)-1H-pyrazol-4-yl)-4-methyl-1-oxo-3,4-dihydropyrazino[1,2-a]indol-2(1H)-yl)-1-methyl-1H-indole-5-carboxylic acid], the inhibition constant Ki on Mcl-1 is below 1 nM. Moreover, the GI50 in assay [1] (setting [2]) is 450 nM.

As to `Cc1cc(OCCCc2c3n(c4c(-c5c(C)nn(CCN6CCCC6)c5C)c(Cl)ccc24)[C@H](C)CN(c2cn(C)c4ccc(C(=O)O)cc24)C3=O)cc(C)c1Cl` [Example 263, (R)-3-(7-chloro-10-(3-(4-chloro-3,5-dimethylphenoxy)propyl)-6-(3,5-dimethyl-1-(2-(pyrrolidin-1-yl)ethyl)-1H-pyrazol-4-yl)-4-methyl-1-oxo-3,4-dihydropyrazino[1,2-a]indol-2(1H)-yl)-1-methyl-1H-indole-5-carboxylic acid], the Ki on Mcl-1 came out at 1.8 nM. The GI50 in assay [1] (setting [2]) was 270 nM.

Turning to `Cc1cc(OCCCc2c3n(c4c(-c5c(C)nn(C)c5C)c(Cl)ccc24)[C@H](C)CN(c2nccc4cc(C(=O)O)ccc24)C3=O)cc(C)c1Cl` [Example 264, 1-[(4R)-7-chloro-10-[3-(4-chloro-3,5-dimethyl-phenoxy)propyl]-4-methyl-1-oxo-6-(1,3,5-trimethylpyrazol-4-yl)-3,4-dihydropyrazino[1,2-a]indol-2-yl]isoquinoline-6-carboxylic acid], at Mcl-1, the Ki was below 1 nM. In assay [1] (setting [2]), the GI50 amounted to 560 nM.

Regarding `Cc1cc(OCCCc2c3n(c4c(-c5c(C)nn(C)c5C)c(Cl)ccc24)[C@H](C)CN(c2cn(C)c4ccc(S(=O)(=O)N5CCNCC5)cc24)C3=O)cc(C)c1Cl` [Example 265, (R)-7-chloro-10-(3-(4-chloro-3,5-dimethylphenoxy)propyl)-4-methyl-2-(1-methyl-5-(piperazin-1-ylsulfonyl)-1H-indol-3-yl)-6-(1,3,5-trimethyl-1H-pyrazol-4-yl)-3,4-dihydropyrazino[1,2-a]indol-1(2H)-one], the Ki at Mcl-1 amounted to 8.2 nM. Moreover, the GI50 in assay [1] (setting [2]) stood at 1500 nM.

On to `CNS(=O)(=O)c1ccc2c(c1)c(N1C[C@@H](C)n3c(c(CCCOc4cc(C)c(Cl)c(C)c4)c4ccc(Cl)c(-c5c(C)nn(C)c5C)c43)C1=O)cn2C` [Example 267, (R)-3-(7-chloro-10-(3-(4-chloro-3,5-dimethylphenoxy)propyl)-4-methyl-1-oxo-6-(1,3,5-trimethyl-1H-pyrazol-4-yl)-3,4-dihydropyrazino[1,2-a]indol-2(1H)-yl)-N,1-dimethyl-1H-indole-5-sulfonamide], for which the Ki at Mcl-1 worked out at 4.7 nM. For the same molecule, the GI50 in assay [1] (setting [2]) was found to be 3100 nM.

In the case of `COCCn1cc(N2C[C@@H](C)n3c(c(CCCOc4cc(C)c(Cl)c(C)c4)c4ccc(Cl)c(-c5c(C)nn(C)c5C)c43)C2=O)c2cc(C(=O)O)ccc21` [Example 268, (R)-3-(7-chloro-10-(3-(4-chloro-3,5-dimethylphenoxy)propyl)-4-methyl-1-oxo-6-(1,3,5-trimethyl-1H-pyrazol-4-yl)-3,4-dihydropyrazino[1,2-a]indol-2(1H)-yl)-1-(2-methoxyethyl)-1H-indole-5-carboxylic acid], the Ki at Mcl-1 was below 1 nM. For the same molecule, in assay [1] (setting [2]), the GI50 was 410 nM.

Turning to `Cc1cc(OCCCc2c3n(c4c(-c5c(C)ncnc5C)c(Cl)ccc24)[C@H](C)CN(c2cn(C)c4ccc(C(N)=O)cc24)C3=O)cc(C)c1Cl` [Example 269, 3-[(4R)-7-chloro-10-[3-(4-chloro-3,5-dimethyl-phenoxy)propyl]-6-(4,6-dimethylpyrimidin-5-yl)-4-methyl-1-oxo-3,4-dihydropyrazino[1,2-a]indol-2-yl]-1-methyl-indole-5-carboxamide], at Mcl-1, the Ki was 7.4 nM. Also, in assay [1] (setting [2]), the GI50 was 760 nM.

In the case of `Cc1cc(OCCCc2c3n(c4c(-c5c(C)nn(C)c5C)c(Cl)ccc24)[C@H](C)CN(c2cccc4cc(C(N)=O)n(C)c24)C3=O)cc(C)c1Cl` [Example 270, 7-[(4R)-7-chloro-10-[3-(4-chloro-3,5-dimethyl-phenoxy)propyl]-4-methyl-1-oxo-6-(1,3,5-trimethylpyrazol-4-yl)-3,4-dihydropyrazino[1,2-a]indol-2-yl]-1-methyl-indole-2-carboxamide], the Ki at Mcl-1 amounted to 1.1 nM. The GI50 in assay [1] (read-out: GI50 on cellular proliferation of H929 human cancer cell lines, H929 cells, 72 h, Cell TiterGlo, 10% FBS) came out at 310 nM.

In the case of `Cc1cc(N2C[C@@H](C)n3c(c(CCCOc4cc(C)c(Cl)c(C)c4)c4ccc(Cl)c(-c5c(C)ncnc5C)c43)C2=O)c2c(c1)cc(C(=O)O)n2C` [Example 272, 7-[(4R)-7-chloro-10-[3-(4-chloro-3,5-dimethyl-phenoxy)propyl]-6-(4,6-dimethylpyrimidin-5-yl)-4-methyl-1-oxo-3,4-dihydropyrazino[1,2-a]indol-2-yl]-1,5-dimethyl-indole-2-carboxylic acid], at Mcl-1, the Ki is below 1 nM. Moreover, the GI50 in assay [1] (setting [2]) stood at 210 nM.

`Cc1cc(OCCCc2c3n(c4c(-c5c(C)ncnc5C)c(Cl)ccc24)[C@H](C)CN(c2nn(C)c4cccc(C(=O)O)c24)C3=O)cc(C)c1Cl` [Example 273, 3-[(4R)-7-chloro-10-[3-(4-chloro-3,5-dimethyl-phenoxy)propyl]-6-(4,6-dimethylpyrimidin-5-yl)-4-methyl-1-oxo-3,4-dihydropyrazino[1,2-a]indol-2-yl]-1-methyl-indazole-4-carboxylic acid]: the Ki on Mcl-1 is below 1 nM. Besides, the GI50 in assay [1] (setting [2]) is 4100 nM.

For `Cc1cc(OCCCc2c3n(c4c(-c5c(C)nn(C)c5C)c(Cl)ccc24)[C@H](C)CN(c2cn(C)c4ccc(S(=O)(=O)N5CCN(C)CC5)cc24)C3=O)cc(C)c1Cl` [Example 274, (R)-7-chloro-10-(3-(4-chloro-3,5-dimethylphenoxy)propyl)-4-methyl-2-(1-methyl-5-((4-methylpiperazin-1-yl)sulfonyl)-1H-indol-3-yl)-6-(1,3,5-trimethyl-1H-pyrazol-4-yl)-3,4-dihydropyrazino[1,2-a]indol-1(2H)-one], the Ki at Mcl-1 was 4.8 nM. Also, the GI50 in assay [1] (setting [2]) is 2200 nM.

`Cc1cc(OCCCc2c3n(c4c(-c5c(C)nn(C)c5C)c(Cl)ccc24)[C@H](C)CN(c2c(C)n(C)c4ccc(C(=O)O)cc24)C3=O)cc(C)c1Cl` [Example 275, 3-[(4R)-7-chloro-10-[3-(4-chloro-3,5-dimethyl-phenoxy)propyl]-4-methyl-1-oxo-6-(1,3,5-trimethylpyrazol-4-yl)-3,4-dihydropyrazino[1,2-a]indol-2-yl]-1,2-dimethyl-indole-5-carboxylic acid]: the Ki at Mcl-1 is below 1 nM. Moreover, the GI50 in assay [1] (setting [2]) is 370 nM.

Turning to `Cc1cc(OCCCc2c3n(c4c(-c5c(C)nn(C)c5C)c(Cl)ccc24)[C@H](C)CN(c2cn(C)c4cc(C(N)=O)ccc24)C3=O)cc(C)c1Cl` [Example 277, 3-[(4R)-7-chloro-10-[3-(4-chloro-3,5-dimethyl-phenoxy)propyl]-4-methyl-1-oxo-6-(1,3,5-trimethylpyrazol-4-yl)-3,4-dihydropyrazino[1,2-a]indol-2-yl]-1-methyl-indole-6-carboxamide], on Mcl-1, the Ki turned out to be 6.6 nM. Moreover, the GI50 in assay [1] (setting [2]) is 1400 nM.

Take `CC(=O)N1CCN(S(=O)(=O)c2ccc3c(c2)c(N2C[C@@H](C)n4c(c(CCCOc5cc(C)c(Cl)c(C)c5)c5ccc(Cl)c(-c6c(C)nn(C)c6C)c54)C2=O)cn3C)CC1` [Example 278, (R)-2-(5-((4-acetylpiperazin-1-yl)sulfonyl)-1-methyl-1H-indol-3-yl)-7-chloro-10-(3-(4-chloro-3,5-dimethylphenoxy)propyl)-4-methyl-6-(1,3,5-trimethyl-1H-pyrazol-4-yl)-3,4-dihydropyrazino[1,2-a]indol-1(2H)-one]: the Ki at Mcl-1 was 5.4 nM. Also, in assay [1] (setting [2]), the GI50 was 1500 nM.

With `Cc1cc(OCCCc2c3n(c4c(-c5c(C)ncnc5C)c(Cl)ccc24)CCCN(c2cccc4cc(C(=O)O)n(Cc5ccccn5)c24)C3=O)cc(C)c1Cl` [Example 279, 7-(8-Chloro-11-(3-(4-chloro-3,5-dimethylphenoxy)propyl)-7-(4,6-dimethylpyrimidin-5-yl)-1-oxo-4,5-dihydro-1H-[1,4]diazepino[1,2-a]indol-2(3H)-yl)-1-(pyridin-2-ylmethyl)-1H-indole-2-carboxylic acid], on Mcl-1, the Ki is 1 nM. Further, the GI50 in assay [1] (setting [2]) worked out at 3300 nM.

Consider `Cc1cc(OCCCc2c3n(c4c(-c5c(C)nn(C)c5C)c(Cl)ccc24)[C@H](C)CN(c2cn(C)c4ccc(C(=O)Nc5ccccn5)cc24)C3=O)cc(C)c1Cl` [Example 280, 3-[(4R)-7-chloro-10-[3-(4-chloro-3,5-dimethyl-phenoxy)propyl]-4-methyl-1-oxo-6-(1,3,5-trimethylpyrazol-4-yl)-3,4-dihydropyrazino[1,2-a]indol-2-yl]-1-methyl-N-(2-pyridyl)indole-5-carboxamide], for which the Ki at Mcl-1 is 1.5 nM. The GI50 in assay [1] (setting [2]) is 2200 nM.
